Measured values as given in patent publication US20060069132A1, “Azolecarboxamide herbicides” (priority 2004, published 2006).

What was measured:
bearded sprangletop = assay: Test D flooded paddy test; type: in vivo, Leptochloa fascicularis; settings: 21 days, scale 0 to 100
Excerpt: (§1) Three plastic pots (ca. 16-cm diameter) per rate were partially filled with sterilized Tama silt loam soil comprising a 35:50:15 ratio of sand, silt and clay and 2.6% organic matter. Separate plantings for each of the three pots were as follows. Seeds from the U.S. of ducksalad (Heteranthera limosa (Sw.) Willd.), smallflower umbrella sedge (Cyperus difformis L.) and purple redstem (Ammannia coccinea Rottb.), were planted into one 16-cm pot for each rate. Seeds from the U.S. of rice flatsedge (Cyperus iria L.), bearded sprangletop (Leptochloa fascicularis (Lam.) Gray), one stand of 9 or 10 water seeded rice seedlings (Oryza sativa L. cv. ‘Japonica—M202’), and one stand of 6 transplanted rice seedlings (Oryza sativa L. cv. ‘Japonica—M202’) were planted into one 16-cm pot for each rate. Seeds from the U.S. of barnyardgrass (Echinochloa crus-galli (L.) Beauv.), late watergrass (Echinochloa oryzicola Vasinger), early watergrass (Echinochloa oryzoides (Ard.) Fritsch) and junglerice (Echinochloa colona (L.) Link) were planted into one 16-cm pot for each rate. Plantings were sequential so that crop and weed species were at the 2.0 to 2.5-leaf stage at time of treatment.
(§2) Potted plants were grown in a greenhouse with day/night temperature settings of 29.5/26.7° C., and supplemental balanced lighting was provided to maintain a 16-hour photoperiod. Test pots were maintained in the greenhouse until test completion.
(§3) At time of treatment, test pots were flooded to 3 cm above the soil surface, treated by application of test compounds directly to the paddy water, and then maintained at that water depth for the duration of the test. Effects of treatments on rice and weeds were visually evaluated by comparison to untreated controls after 21 days. Plant response ratings are reported on a 0 to 100 scale; where 0 is no effect and 100 is complete control. A dash (-) response means no test result.

[1] = test system: smallflower umbrella sedge; assay: Test D flooded paddy test; type: in vivo, Cyperus difformis; settings: 21 days, scale 0 to 100
Excerpt: as §1, §2, §3

early watergrass = assay: Test D flooded paddy test; type: in vivo, Echinochloa oryzoides; settings: 21 days, scale 0 to 100
Excerpt: as §1, §2, §3

ducksalad = assay: Test D flooded paddy test; type: in vivo, Heteranthera limosa; settings: 21 days, scale 0 to 100
Excerpt: as §1, §2, §3

bipinnate beggarticks = assay: Test E pre-/postemergence herbicide test; type: in vivo, Bidens bipinnata; settings: Preemergence
Excerpt: (§4) Seeds of plant species selected from bipinnate beggarticks (Bidens bipinnata L.), hairy beggarticks (Bidens radiata Thuill.), bermudagrass (Cynodon dactylon (L.) Pers.), Surinam grass (Urochloa decumbens (Staph) R. D. Webster, previously named Brachiaria decumbens Stapf), large crabgrass (Digitaria sanguinalis (L.) Scop.), green foxtail (Setaria viridis (L.) P. Beauv.), goosegrass (Eleusine indica (L.) Gaertn.), johnsongrass (Sorghum halepense (L.) Pers.), kochia (Kochia scoparia (L.) Schrad.), pitted morningglory (Ipomoea lacunosa L.), purple nutsedge (Cyperus rotundus L.), common ragweed (Ambrosia elatior L.), mustard (Brassica nigra (L.) W. D. J. Koch), guineagrass (Panicum maximum Jacq.), dallisgrass (Paspalum dilatatum Poir.), barnyardgrass (Echinochloa crus-galli (L). P. Beauv.), southern sandbur (Cenchrus echinatus L.), common sowthistle (Sonchus oleraceous L.), prickly sida (Sida spinosa L.), Italian ryegrass (Lolium multiflorum Lam.), common purslane (Portulaca oleracea L.), broadleaf signalgrass (Brachiaria platyphylla (Griseb.) Nash), common groundsel (Senecio vulgaris L.), common chickweed (Stellaria media (L.) Vill/Cyr.), tropical spiderwort (Commelina benghalensis L.), annual bluegrass (Poa annua L.), downy bromegrass (Bromus tectorum L.), itchgrass (Rottboellia cochinchinensis (L.) L.f.), quackgrass (Elytrigia repens (L.) Nevski), Canada horseweed (Erigeron Canadensis L.), field bindweed (Convolvulus arvensis L.), spotted spurge (Euphorbia maculata L.), common mallow (Malva sylvestris (=s silvestris) L.), and Russian thistle (Salsola kali L. ssp. Ruthenica (Iljin) Soo) were planted and treated preemergence with test chemicals formulated in a non-phytotoxic solvent mixture which included a surfactant.
(§5) At the same time, plants selected from these weed species were treated with postemergence applications of some of the test chemicals formulated in the same manner. Plants ranged in height from 2 to 18 cm (1- to 4-leaf stage) for postemergence treatments. Treated plants and controls were maintained in a greenhouse for 12 to 14 days, after which time all species were compared to controls and visually evaluated. Plant response ratings, summarized in Table E, are based on a scale of 0 to 100 where 0 is no effect and 100 is complete control. A dash (-) response means no test result.

Russian thistle = assay: Test E pre-/postemergence herbicide test; type: in vivo, Salsola kali
Excerpt: as §4, §5

[2] = test system: corn (maize) cv. Pioneer 33G26; assay: Test G safening on corn by naphthalic anhydride seed treatment, preemergence; type: in vivo, Zea mays
Excerpt: This test evaluated the safening of compounds of the invention on corn (maize; Zea mays L.) cv. ‘Pioneer 33G26’ by seed treatment with naphthalic anhydride (1,8-naphthalic anhydride). All corn seed had been first treated with fludioxonil and metaxyl applied at the manufacturer's recommended rate as per the Pioneer 33G26 label. Some of the corn seed were subsequently also treated with naphthalic anhydride as a 1% by weight seed dressing. The corn seed were planted in pots containing pasteurized Sassafras sandy loam soil, and then treatments were applied preemergence the same day. Treatments were applied by spraying the test compounds formulated in a non-phytotoxic solvent mixture, using a flat fan nozzle and a spray volume of 280 L/ha. The treatments were triply replicated and the results subsequently averaged. The pots were placed on a greenhouse bench using a complete randomized block design except for the first replicate, which was unrandomized. The plants were grown in the greenhouse and watered as needed with a dilute nutrient solution containing 200 ppm of N. Illumination was daylight supplemented by artificial sources to maintaining a photoperiod of 16 hours. The temperature was maintained at 28±2° C. during the day and 23±2° C. at night. The plant response was visually rated 25 days after treatment in comparison to untreated controls using a scale of 0 to 100, with 0 representing no effect and 100 representing complete plant death.

[3] = 250 g ai/ha, scale 0 (no effect) to 100 (complete control)
[4] = Preemergence, 125 g ai/ha, scale 0 to 100
[5] = Preemergence, 500 g ai/ha, scale 0 (no effect) to 100 (complete control)

CCn1nc(C(C)(C)C)cc1C(=O)Nc1cc(C(=O)NCC2CC2)ccn1 [Compound 155]
Plant response rating, Sprangletop, Bearded (bearded sprangletop; 32 g ai/ha): 30 | Plant response rating, Sprangletop, Bearded (bearded sprangletop; 64 g ai/ha): 30 | Plant response rating, Sprangletop, Bearded (bearded sprangletop; 125 g ai/ha): 30 | Plant response rating, Sprangletop, Bearded (bearded sprangletop; 250 g ai/ha): 40 | Plant response rating, Sprangletop, Bearded (bearded sprangletop; 500 g ai/ha): 75 | Plant response rating, Sedge, Umbrella ([1]; 32 g ai/ha): 30 | Plant response rating, Sedge, Umbrella ([1]; 64 g ai/ha): 65 | Plant response rating, Sedge, Umbrella ([1]; 125 g ai/ha): 75 | Plant response rating, Sedge, Umbrella ([1]; 250 g ai/ha): 75 | Plant response rating, Sedge, Umbrella ([1]; 500 g ai/ha): 80 | Plant response rating, Watergrass, Early (early watergrass; 32 g ai/ha): 0 | Plant response rating, Watergrass, Early (early watergrass; 64 g ai/ha): 0 | Plant response rating, Watergrass, Early (early watergrass; 125 g ai/ha): 25 | Plant response rating, Watergrass, Early (early watergrass; 250 g ai/ha): 35 | Plant response rating, Watergrass, Early (early watergrass; 500 g ai/ha): 70 | Plant response rating, Ducksalad (ducksalad; 32 g ai/ha): 0 | Plant response rating, Ducksalad (ducksalad; 64 g ai/ha): 0 | Plant response rating, Ducksalad (ducksalad; 125 g ai/ha): 0 | Plant response rating, Ducksalad (ducksalad; 250 g ai/ha): 60 | Plant response rating, Ducksalad (ducksalad; 500 g ai/ha): 60

CCc1nn(C(C)C)nc1C(=O)Nc1cccc(C(=O)N2CCCCC2)c1 [Compound 385]
Plant response rating, Beggarticks, Bip. (bipinnate beggarticks; 62 g ai/ha, scale 0 to 100): 0 | Plant response rating, Beggarticks, Bip. (bipinnate beggarticks; 125 g ai/ha, scale 0 to 100): 30 | Plant response rating, Beggarticks, Bip. (bipinnate beggarticks; [3]): 30 | Plant response rating, Thistle (Russian thistle; [4]): 50

CCN1N=C(C(C)(C)C)CC1C(=O)Nc1cc(C(=O)N(C)C)ccc1F (stereo not drawn) [Compound 268, N-[5-[(dimethylamino)carbonyl]-2-fluorophenyl]-3-(1,1-dimethylethyl)-1-ethyl-4,5-dihydro-1H-pyrazole-5-carboxamide]
Plant response rating, Thistle (Russian thistle; [4]): 60 | Plant response rating, Thistle (Russian thistle; [5]): 100

CCn1nc(C(C)(C)C)cc1C(=O)Nc1cc(C(=O)N(C)C)ccn1 [Compound 156, 2-[[[3-(1,1-dimethylethyl)-1-ethyl-1H-pyrazol-5-yl]carbonyl]amino]-N,N-dimethyl-4-pyridinecarboxamide]
Response of corn, With 1% naphthalic anhydride seed treatment ([2]; 62 g a.i./ha): 0 | Response of corn, Without naphthalic anhydride seed treatment ([2]; 62 g a.i./ha): 2 | Response of corn, With 1% naphthalic anhydride seed treatment ([2]; 125 g a.i./ha): 0 | Response of corn, Without naphthalic anhydride seed treatment ([2]; 125 g a.i./ha): 30 | Response of corn, With 1% naphthalic anhydride seed treatment ([2]; 250 g a.i./ha): 17 | Response of corn, Without naphthalic anhydride seed treatment ([2]; 250 g a.i./ha): 65 | Response of corn, With 1% naphthalic anhydride seed treatment ([2]; 500 g a.i./ha): 17 | Response of corn, Without naphthalic anhydride seed treatment ([2]; 500 g a.i./ha): 88 | Plant response rating, Thistle (Russian thistle; Postemergence, 250 g ai/ha, scale 0 to 100): 80 | Plant response rating, Thistle (Russian thistle; Preemergence, 62 g ai/ha, scale 0 to 100): 80 | Plant response rating, Thistle (Russian thistle; [4]): 100 | Plant response rating, Thistle (Russian thistle; [5]): 100

CCc1nn(C(C)C)nc1C(=O)Nc1cccc(C(=O)N(C)CC)c1 [Compound 386]
Plant response rating, Beggarticks, Bip. (bipinnate beggarticks; [3]): 40
